Like-named read-outs stand apart in the source and are kept apart here.
Assays:
necrosis = test: Necrosis inhibitory activity (cell necrosis / cell viability assay); format: cell-based
Source text: Necrosis Inhibitory Activity
(§1) Representative IC50 of hRIP1 Kinase Assay Correlated with Our IC50 of Cell Necrosis Assay: […]

ferroptosis = test: Ferroptosis inhibitor activity; format: cell-based; details: 1 uM threshold activity extrapolated
Source text: Ferroptosis Inhibitor Activity 1 Um Threshold Activity Extrapolated

Human RIP1 kinase = Human RIP1 kinase (Homo sapiens (Human), UniProt Q13546); test: Human RIP1 kinase assay; format: biochemical; details: given as bound or range
Source text: as §1

HT-29 = test: EC50 in HT-29; format: cell-based; details: Homo sapiens
[1] = Liver microsome stability, human; format: in vitro ADME; details: liver microsomes, comparison table with WO2016/101885 compounds, read-out: Human Liver Microsome T1/2
Source text: (§2) Representative Metabolic Stability Data I; +, Extrapolated.

[2] = Liver microsome stability, rat; format: in vitro ADME; details: liver microsomes, comparison table with WO2016/101885 compounds, read-out: Rat Liver Microsome T1/2
Source text: as §2

[3] = Liver microsome stability, mouse; format: in vitro ADME; details: liver microsomes, comparison table with WO2016/101885 compounds, read-out: Mouse Liver Microsome T1/2
Source text: as §2

PK in rat = test: PK in rat; set-up: species or system SD rat; details: Sprague-Dawley, in vivo, PO 10 mg/kg
Source text: Representative PK Date of Pro-Drug Compounds

PK in mouse = details: in vivo
PK in dog = details: in vivo
[4] = Necrosis Inhibitory Activity, given as range, read-out: EC50
[5] = cell necrosis assay, given as bound or range, read-out: Cell viability assay, EC50

Chain of Human RIP1 kinase (Q13546 whole entry): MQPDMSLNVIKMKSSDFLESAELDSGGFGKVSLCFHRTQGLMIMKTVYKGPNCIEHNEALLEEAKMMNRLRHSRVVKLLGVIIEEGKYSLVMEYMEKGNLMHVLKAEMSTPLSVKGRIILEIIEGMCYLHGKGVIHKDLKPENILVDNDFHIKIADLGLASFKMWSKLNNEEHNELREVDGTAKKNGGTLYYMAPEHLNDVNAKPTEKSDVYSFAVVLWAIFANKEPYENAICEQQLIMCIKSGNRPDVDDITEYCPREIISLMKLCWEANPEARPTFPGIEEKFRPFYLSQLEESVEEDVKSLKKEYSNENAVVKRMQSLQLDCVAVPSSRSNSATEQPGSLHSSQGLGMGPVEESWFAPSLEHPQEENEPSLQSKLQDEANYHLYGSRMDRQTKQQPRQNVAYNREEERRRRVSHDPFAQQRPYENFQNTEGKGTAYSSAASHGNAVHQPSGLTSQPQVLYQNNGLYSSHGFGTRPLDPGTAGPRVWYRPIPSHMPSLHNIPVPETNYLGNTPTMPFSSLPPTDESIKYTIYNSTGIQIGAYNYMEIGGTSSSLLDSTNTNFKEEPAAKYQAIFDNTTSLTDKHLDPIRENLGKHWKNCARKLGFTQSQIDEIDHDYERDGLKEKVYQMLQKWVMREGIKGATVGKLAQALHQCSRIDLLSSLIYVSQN

Structure (SMILES): O=C(C1CCN(c2ncc(F)cn2)CC1)N(O)Cc1ccccc1 [Compound 84, N-benzyl-1-(5-fluoropyrimidin-2-yl)-N-hydroxypiperidine-4-carboxamide]
- EC50 (necrosis; [4]): 1 to 1000 nM
- EC50 (necrosis; [5]): < 100 nM
- EC50 (ferroptosis): 1 to 10 µM
- IC50 (Human RIP1 kinase): < 100 nM

Structure (SMILES): O=C(C1CCN(c2ncc(F)cn2)CC1)N(O)Cc1cc(F)cc(F)c1 [Compound 86, N-(3,5-difluorobenzyl)-1-(5-fluoropyrimidin-2-yl)-N-hydroxypiperidine-4-carboxamide]
- EC50 (necrosis; [4]): 1 to 1000 nM
- EC50 (necrosis; [5]): 1 to 1000 nM
- EC50 (ferroptosis): 1 to 10 µM
- IC50 (Human RIP1 kinase): < 100 nM

Structure (SMILES): CCC(C)(C)C(=O)N(O)Cc1cc(F)cc(F)c1F [SIR1-176]
- EC50 (HT-29): 65 nM
- half-life [1]: 67 min
- half-life [2]: 22 min
- half-life [3]: 9 min

Structure (SMILES): CCC(C)(C)C(=O)N(O)Cc1ccc(F)cc1F [SIR1-179]
- EC50 (HT-29): 197 nM
- half-life [1]: 198 min
- half-life [2]: 28 min
- half-life [3]: 23 min

Structure (SMILES): CCC(C)(C)C(=O)N(O)Cc1ccc(F)c(F)c1 [SIR1-180]
- EC50 (HT-29): 55 nM
- half-life [1]: 107 min
- half-life [2]: 29 min
- half-life [3]: 11 min

Structure (SMILES): CCC(C)(C)C(=O)N(O)Cc1ccc(F)cc1 [SIR1-181]
- EC50 (HT-29): 64 nM
- half-life [1]: 178 min
- half-life [2]: 37 min
- half-life [3]: 24 min
- AUC(0-inf) (PK in rat; Rat): 24.3 ng·h/mL
- Cmax (PK in rat; Rat): 32.3 ng/mL
- half-life (PK in rat; rat, po, 10 mg/kg): 32.5 min
- AUC(0-inf) (PK in mouse; IV 2 mg/kg): 522 ng·h/mL
- clearance (PK in mouse; IV 2 mg/kg): 63.7 mL/min/kg
- half-life (PK in mouse; IV 2 mg/kg): 35.7 min
- Vd (PK in mouse; IV 2 mg/kg, read-out: Vdss): 3.28 L/kg
- AUC(0-inf) (PK in mouse; PO 10 mg/kg): 1740 ng·h/mL
- Cmax (PK in mouse; PO 10 mg/kg): 2850 ng/mL
- bioavailability (PK in mouse; PO 10 mg/kg): 66.6%
- half-life (PK in mouse; PO 10 mg/kg): 30.8 min
- AUC(0-inf) (PK in dog; IV 5 mg/kg): 3210 ng·h/mL
- clearance (PK in dog; IV 5 mg/kg): 25.9 mL/min/kg
- half-life (PK in dog; IV 5 mg/kg): 120 min
- Vd (PK in dog; IV 5 mg/kg, read-out: Vdss): 1.8 L/kg
- AUC(0-inf) (PK in dog; PO 10 mg/kg): 148 ng·h/mL
- Cmax (PK in dog; PO 10 mg/kg): 195 ng/mL
- bioavailability (PK in dog; PO 10 mg/kg): 2.5%
- half-life (PK in dog; PO 10 mg/kg): 276 min

Structure (SMILES): CCC(C)(C)C(=O)N(O)Cc1ccc(F)c(F)c1F [SIR1-184]
- EC50 (HT-29): 272 nM
- half-life [1]: 36 min
- half-life [2]: 19 min
- half-life [3]: 12 min

Structure (SMILES): CCC(C)(C)C(=O)N(O)Cc1cc(F)c(F)c(F)c1 [SIR1-186]
- EC50 (HT-29): 46 nM
- half-life [1]: 64 min
- half-life [2]: 21 min
- half-life [3]: 6 min
